Laboratory results as given in patent US8809342B2, “Glucagon receptor modulators” (Pfizer Inc., priority 2010, dated 2014).

Molecular target: T1, human glucagon receptor (Homo sapiens, UniProt P47871)
T1 construct: expressed in transfected cells; host or cells: CHO-K1 cells, stably transfected
Assay: Glucagon cAMP assay (Cisbio cAMP detection)
Format: cell-based
Method: The Cisbio cAMP detection assay is used to determine the ability of punitive glucagon antagonist to block glucagon induced cAMP production. Potential glucagon antagonists are re-suspended and diluted in 100% DMSO. Prior to use in the Glucagon cAMP assay 100×DMSO compound stocks are diluted 20× with DMEM-F12 media (Invitrogen) containing either 0.1% or 4% BSA. 2 uls of 5× compound stocks are spotted into the appropriate wells of low binding white solid bottom 384 well plates (Corning). 2 uls of 5% DMSO or known glucagon antagonist are added to each plate to define the assay window. CHOK1 cells stably transfected with the human glucagon receptor are removed from culture flasks with cell dissociation buffer. Cell pellets are re-suspended, at a concentration of 8.3e^5 cells/ml in DMEM-F12 with or without 4% BSA and 200 uM IBMX. 6 uls of cell suspensions are added to the assay plates. Plates are incubated for 20 min at room temperature prior to the addition of a 100 pM challenge dose of glucagon. On a separate plate glucagon dose response curves are run to determine the EC50 of glucagon. After a 30 min room temperature incubation the reaction is terminated by the addition of lysis buffer containing the cAMP detection reagents. Plates are incubated for an additional 60 min at room temperature prior to being read on the Perkin Elmer fluorescent plate reader. Raw is converted to nM of cAMP produced based on a cAMP standard curve. Converted data is then analyzed using the Pfizer data analysis program. IC50 values are determined from the generated sigmoidal dose response curves. Kb values are the calculated using a modified Cheng-Prusoff equation.

T1 sequence (P47871 26-477): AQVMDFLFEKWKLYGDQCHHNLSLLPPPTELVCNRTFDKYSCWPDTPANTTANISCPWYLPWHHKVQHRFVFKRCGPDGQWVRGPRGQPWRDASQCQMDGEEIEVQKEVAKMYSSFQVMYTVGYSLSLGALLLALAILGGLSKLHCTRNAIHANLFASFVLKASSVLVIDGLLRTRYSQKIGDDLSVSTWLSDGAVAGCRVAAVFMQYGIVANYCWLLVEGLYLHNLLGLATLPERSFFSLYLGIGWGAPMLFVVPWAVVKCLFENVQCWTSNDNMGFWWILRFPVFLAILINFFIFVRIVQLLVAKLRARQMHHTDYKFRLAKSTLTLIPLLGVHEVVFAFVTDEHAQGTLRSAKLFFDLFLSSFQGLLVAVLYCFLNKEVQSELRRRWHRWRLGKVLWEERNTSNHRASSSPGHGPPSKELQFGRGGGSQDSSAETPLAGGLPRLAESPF

CC(C)CC(Nc1ccc(C(=O)NCCC(=O)O)cn1)c1ccc(-c2ccc(C(F)(F)F)cc2)cc1 (racemic) [Example 1.2, (+/−)-3-(6-(3-methyl-1-(4′-(trifluoromethyl)biphenyl-4-yl)butylamino)nicotinamido)propanoic acid]
Kb: 140 nM

CC(C)CC(Nc1ncc(C(=O)NCCC(=O)O)cn1)c1ccc(-c2ccc(C(F)(F)F)cc2)cc1 (racemic) [Example 1.4, (+/−)-3-(2-(3-methyl-1-(4′-(trifluoromethyl)biphenyl-4-yl)butylamino)pyrimidine-5-carboxamido)propanoic acid]
Kb: 560 nM

CCCC(Nc1ccc(C(=O)NCCC(=O)O)cn1)c1ccc(-c2ccc(C(F)(F)F)cc2)cc1 (racemic) [Example 1.7, (+/−)-3-(6-(1-(4′-(trifluoromethyl)biphenyl-4-yl)butylamino)nicotinamido)propanoic acid]
Kb: 170 nM

CC(C)C(Nc1ccc(C(=O)NCCC(=O)O)cn1)c1ccc(-c2ccc(C(F)(F)F)cc2)cc1 (racemic) [Example 1.10, (+/−)-3-(6-(2-methyl-1-(4′-(trifluoromethyl)biphenyl-4-yl)propylamino)nicotinamido)propanoic acid]
Kb: 180 nM

CCC(Nc1ccc(C(=O)NCCC(=O)O)cn1)c1ccc(-c2ccc(C(F)(F)F)cc2)cc1 (racemic) [Example 1.11]
Kb: 280 nM

CC(C)CC(Nc1cnc(C(=O)NCCC(=O)O)cn1)c1ccc(-c2ccc(C(F)(F)F)cc2)cc1 (racemic) [Example 1.16, (+/−)-3-(5-(3-methyl-1-(4′-(trifluoromethyl)biphenyl-4-yl)butylamino)pyrazine-2-carboxamido)propanoic acid]
Kb: 150 nM

CC(C)CC(Nc1ncc(C(=O)Nc2nnn[nH]2)cn1)c1ccc(-c2ccc(C(F)(F)F)cc2)cc1 (racemic) [Example 1.19, (+/−)-2-(3-methyl-1-(4′-(trifluoromethyl)biphenyl-4-yl)butylamino)-N-(1H-tetrazol-5-yl)pyrimidine-5-carboxamide]
Kb: 890 nM

CC(C)CC(Nc1ccc(C(=O)Nc2nn[nH]n2)cn1)c1ccc(-c2ccc(C(F)(F)F)cc2)cc1 (racemic) [Example 1.20]
Kb: 1000 nM

CC(C)CC(Nc1ccc(C(=O)NCc2nn[nH]n2)cn1)c1ccc(-c2ccc(C(F)(F)F)cc2)cc1 (racemic) [Example 1.21, (+/−)-N-((2H-tetrazol-5-yl)methyl)-6-(3-methyl-1-(4′-(trifluoromethyl)biphenyl-4-yl)butylamino)nicotinamide]
Kb: 520 nM

CC(C)CC(Nc1ccc(C(=O)NCCS(=O)(=O)O)cn1)c1ccc(-c2ccc(C(F)(F)F)cc2)cc1 (racemic) [Example 1.22, (+/−)-2-(6-(3-methyl-1-(4′-(trifluoromethyl)biphenyl-4-yl)butylamino)nicotinamido) ethanesulfonic acid]
Kb: 6700 nM

CC(C)CC(Nc1ccc(C(=O)N(C)CCC(=O)O)cn1)c1ccc(-c2ccc(C(F)(F)F)cc2)cc1 (racemic) [Example 1.23, (+/−)-3-(N-methyl-6-(3-methyl-1-(4′-(trifluoromethyl)biphenyl-4-yl)butylamino)nicotinamido)propanoic acid]
Kb: 300 nM

CC(C)CC(Nc1ccc(C(=O)NC[C@@H](O)C(=O)O)cn1)c1ccc(-c2ccc(C(F)(F)F)cc2)cc1 (mixture of isomers) [Example 1.24, (+/−)-(2R)-2-hydroxy-3-(6-(3-methyl-1-(4′-(trifluoromethyl)biphenyl-4-yl)butylamino)nicotinamido)propanoic acid]
Kb: 1600 nM

Cc1cc(C(CC(C)C)Nc2ccc(C(=O)NCCC(=O)O)cn2)ccc1-c1ccc(C(F)(F)F)cc1 (racemic) [Example 1.25, (+/−)-3-(6-(3-methyl-1-(2-methyl-4′-(trifluoromethyl)biphenyl-4-yl)butylamino)nicotinamido)propanoic acid]
Kb: 95 nM

Cc1cc(C(CC(C)C)Nc2ncc(C(=O)NCCC(=O)O)cn2)ccc1-c1ccc(C(F)(F)F)cc1 (racemic) [Example 1.26, (+/−)-3-(2-(3-methyl-1-(2-methyl-4′-(trifluoromethyl)biphenyl-4-yl)butylamino)pyrimidine-5-carboxamido)propanoic acid]
Kb: 390 nM

Cc1cc(C(CC(C)C)Nc2ncc(C(=O)NCCC(=O)O)cn2)cc(C)c1-c1ccc(C(F)(F)F)cc1 (racemic) [Example 1.27, (+/−)-3-(2-(1-(2,6-dimethyl-4′-(trifluoromethyl)biphenyl-4-yl)-3-methylbutylamino)pyrimidine-5-carboxamido)propanoic acid]
Kb: 260 nM

Cc1cc(C(CC(C)C)Nc2ccc(C(=O)NCCC(=O)O)cn2)cc(C)c1-c1ccc(C(F)(F)F)cc1 (racemic) [Example 1.28, (+/−)-3-(6-(1-(2,6-dimethyl-4′-(trifluoromethyl)biphenyl-4-yl)-3-methylbutylamino)nicotinamido)propanoic acid]
Kb: 83 nM

CC(C)CC(Nc1ccc(C(=O)NCCC(=O)O)cn1)c1ccc(-c2ccc(C(F)(F)F)cc2)nc1 (racemic) [Example 1.29, (+/−)-3-(6-(3-methyl-1-(6-(4-(trifluoromethyl)phenyl)pyridin-3-yl)butylamino)nicotinamido)propanoic acid]
Kb: 160 nM

CCCC(Nc1cnc(C(=O)NCCC(=O)O)cn1)c1ccc(-c2ccc(C(F)(F)F)cc2)cc1 (racemic) [Example 1.30, (+/−)-3-(5-(1-(4′-(trifluoromethyl)biphenyl-4-yl)butylamino)pyrazine-2-carboxamido)propanoic acid]
Kb: 540 nM

CCC(Nc1cnc(C(=O)NCCC(=O)O)cn1)c1ccc(-c2ccc(C(F)(F)F)cc2)cc1 (racemic) [Example 1.31, (+/−)-3-(5-(1-(4′-(trifluoromethyl)biphenyl-4-yl)propylamino)pyrazine-2-carboxamido)propanoic acid]
Kb: 540 nM

O=C(O)CCNC(=O)c1ccc(NC(c2ccc(-c3ccc(C(F)(F)F)cc3)cc2)C2CCC2)nc1 (racemic) [Example 1.32, (+/−)-3-(6-(cyclobutyl(4′-(trifluoromethyl)biphenyl-4-yl)methylamino)nicotinamido)propanoic acid]
Kb: 610 nM

CC(C)(C)CC(Nc1ccc(C(=O)NCCC(=O)O)cn1)c1ccc(-c2ccc(C(F)(F)F)cc2)cc1 (racemic) [Example 1.33, (+/−)-3-(6-(3,3-dimethyl-1-(4′-(trifluoromethyl)biphenyl-4-yl)butylamino)nicotinamido)propanoic acid]
Kb: 120 nM

O=C(O)CCNC(=O)c1ccc(NC(c2ccc(-c3ccc(C(F)(F)F)cc3)cc2)C2CC2)nc1 (racemic) [Example 1.34, (+/−)-3-(6-(cyclopropyl(4′-(trifluoromethyl)biphenyl-4-yl)methylamino)nicotinamido)propanoic acid]
Kb: 550 nM

O=C(O)CCNC(=O)c1ccc(NC(c2ccc(-c3ccc(C(F)(F)F)cc3)cc2)C2CCCC2)nc1 (racemic) [Example 1.35, (+/−)-3-(6-(cyclopentyl(4′-(trifluoromethyl)biphenyl-4-yl)methylamino)nicotinamido)propanoic acid]
Kb: 50 nM

Cc1ccc(-c2ccc(C(CC(C)C)Nc3ccc(C(=O)NCCC(=O)O)cn3)cc2)cn1 (racemic) [Example 1.36, (+/−)-3-(6-(3-methyl-1-(4-(6-methylpyridin-3-yl)phenyl)butylamino)nicotinamido)propanoic acid]
Kb: 870 nM

CC(C)CC(Nc1ccc(C(=O)NCCC(=O)O)cn1)c1ccc(-c2ccccc2)cc1 (racemic) [Example 1.37]
Kb: 220 nM
